Experiments:
[1] = molecular target: T1, human dopamine D4 receptor (Homo sapiens, UniProt P21917); experiment: Intrinsic functional experiment, CRE luciferase reporter gene assay, D4 receptor; type: cell-based; details: 2 μM forskolin, HEK-293 cells, quinpirole positive control
T1 construct: expressed in transfected cells; host or cells: Human embryonic kidney-293 cells
T1 sequence (P21917 1-419): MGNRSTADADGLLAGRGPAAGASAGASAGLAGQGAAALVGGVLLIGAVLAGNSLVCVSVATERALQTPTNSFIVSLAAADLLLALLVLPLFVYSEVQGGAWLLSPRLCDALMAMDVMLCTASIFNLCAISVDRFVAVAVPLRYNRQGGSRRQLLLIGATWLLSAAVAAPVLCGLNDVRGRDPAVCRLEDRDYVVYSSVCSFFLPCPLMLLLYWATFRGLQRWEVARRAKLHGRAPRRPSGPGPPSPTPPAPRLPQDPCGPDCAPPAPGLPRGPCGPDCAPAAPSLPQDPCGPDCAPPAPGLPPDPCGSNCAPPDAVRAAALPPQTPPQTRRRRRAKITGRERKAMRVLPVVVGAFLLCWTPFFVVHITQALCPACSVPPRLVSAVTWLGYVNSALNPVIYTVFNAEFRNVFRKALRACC
Experimental: (§1) Human embryonic kidney-293 cells were transfected with complementary DNA of human dopamine D2, D3 and D4 receptors and a luciferase reporter gene transcriptionally controlled by CRE. The cells transfected with an empty vector were used as a negative control. The cells were seeded into 24-well plates, and 2 μM of forskolin and various concentrations of compounds were added. Cells added with quinpirole were used as a positive control group. After four hours' incubation, cells were lysed with cell lysis buffer for 20 minutes and then centrifuged. The supernatant was reacted with 25 μL of luciferase substrate and the expression level of luciferase was detected by using a dual luciferase reporter vector kit.

dopamine D3 receptor [2] = molecular target: T2, dopamine D3 receptor (Homo sapiens, UniProt P35462)
Experimental: (§3) Human embryonic kidney-293 cells were cultured in fresh MEM medium containing 10% fetal bovine serum, 100 units of penicillin, and 100 μg/mL streptomycin at 37° C. under 5% CO2. Cells were transfected with DNA plasmids of dopamine D2 and D3 receptors respectively by using polyethylenimine. After transfection for 4 hours, medium was replaced with fresh MEM medium containing fetal bovine serum and the cells were further cultured for 24 hours. The cells were seeded into 24-well plates and cultured for 14-16 hours or overnight. After the medium was discarded, the cells were rinsed with pre-cooled serum-free MEM. Radioligand ([^3H]-sulpiride) and various concentrations of compounds were added into the adherent cells, and incubated in a bath at 4° C. for 150 minutes. The cells were rinsed three times with pre-cooled MEM containing 10 mM HEPES to remove unbound ligands. After the medium was completely removed, the cells were lysed with 1% sodium lauryl sulfate. The remaining radioligands were detected with a liquid scintillation counter to calculate the relative amount of bound compounds.

dopamine D2 receptor [3] = molecular target: T3, dopamine D2 receptor (Homo sapiens, UniProt P14416); experiment: Intrinsic functional experiment, CRE luciferase reporter gene assay, D2 receptor; type: cell-based; details: 2 μM forskolin, HEK-293 cells, quinpirole positive control
T3 construct: expressed in transfected cells; host or cells: Human embryonic kidney-293 cells
Experimental: as §1

dopamine D3 receptor [4] = molecular target: T2, dopamine D3 receptor; experiment: cell-based
Experimental: as §3

dopamine D2 receptor [5] = molecular target: T3, dopamine D2 receptor; experiment: Competitive inhibition test using radioligands ([3H]-sulpiride), D2 receptor; type: binding
Experimental: as §3

[6] = Solubility assay in water; type: physicochemical
Source text: (§2) Solubility Assay of the D3 Receptor-Selective Ligand

[7] = Solubility assay in anhydrous ethanol; type: physicochemical; details: organic solvent or mixture
Source text: as §2

dopamine D3 receptor [8] = molecular target: T2, dopamine D3 receptor; experiment: Intrinsic functional experiment, CRE luciferase reporter gene assay, D3 receptor; type: cell-based; design: expressed in transfected cells; host or cells: Human embryonic kidney-293 cells; details: 2 μM forskolin, HEK-293 cells, quinpirole positive control
Experimental: as §1

[9] = test system: 6-OHDA-induced Parkinson's disease rats; experiment: Rotarod assay in 6-hydroxydopamine-induced Parkinson's disease rats; type: in vivo, Sprague Dawley (SD) rats; details: intraperitoneal for 3 days, 6-hydroxydopamine rats
Experimental: Experimental Sprague Dawley (SD) rats were randomly divided into an experimental group and a control group. After repeated behavior detection confirmed that there was no rotational behavior, the experiment was performed. Experimental group: rats were anesthetized with a mixture of xylazine (15 mg/kg, i.p.) and ketamine (100 mg/kg, i.p.), and then desipramine hydrochloride (25 mg/kg, s.c.) were used to protect noradrenergic neurons. 6 μg of 6-hydroxydopamine was dissolved in 2.3 μL of 0.9% sterile saline, and injected into the cerebral substantia nigra (antero-posterior −5.4 mm, […] from the bregma which was used as a zero coordinate) at a rate of 0.5 μL/min by using cerebral stereotaxic surgery. Rats in the control group were injected with the same dose of 0.9% sterile saline. After injection, the syringe needle was left in rats for 5 minutes before the needle was slowly withdrawn. After the rats awakened, they were placed in animal facilities for behavioral model evaluation to ensure that 6-hydroxydopamine induced the formation of a model with movement disorders and emotional/motivational disorders. Because hunger is prone to occur as a result of dopamine damage of the midbrain substantia nigra, 20% of rats were given high-calorie food for 1-2 weeks. After 19 days, the D3 receptor-selective ligand was continuously injected intraperitoneally for 3 days. Rats were allowed to accommodate the rotarod on days 19-20, and a rotarod assay was performed on days 21-22.

T2 sequence (P35462 whole entry): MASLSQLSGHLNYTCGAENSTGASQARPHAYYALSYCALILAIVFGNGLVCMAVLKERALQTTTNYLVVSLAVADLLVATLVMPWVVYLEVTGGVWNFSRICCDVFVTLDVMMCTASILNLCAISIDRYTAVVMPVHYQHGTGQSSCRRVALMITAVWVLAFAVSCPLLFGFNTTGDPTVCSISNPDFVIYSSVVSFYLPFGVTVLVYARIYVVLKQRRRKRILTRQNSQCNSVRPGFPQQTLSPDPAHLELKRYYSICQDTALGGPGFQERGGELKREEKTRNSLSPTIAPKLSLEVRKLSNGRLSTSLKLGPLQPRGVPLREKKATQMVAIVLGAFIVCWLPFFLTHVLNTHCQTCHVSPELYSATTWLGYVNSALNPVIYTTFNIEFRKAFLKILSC
T3 sequence (P14416 whole entry): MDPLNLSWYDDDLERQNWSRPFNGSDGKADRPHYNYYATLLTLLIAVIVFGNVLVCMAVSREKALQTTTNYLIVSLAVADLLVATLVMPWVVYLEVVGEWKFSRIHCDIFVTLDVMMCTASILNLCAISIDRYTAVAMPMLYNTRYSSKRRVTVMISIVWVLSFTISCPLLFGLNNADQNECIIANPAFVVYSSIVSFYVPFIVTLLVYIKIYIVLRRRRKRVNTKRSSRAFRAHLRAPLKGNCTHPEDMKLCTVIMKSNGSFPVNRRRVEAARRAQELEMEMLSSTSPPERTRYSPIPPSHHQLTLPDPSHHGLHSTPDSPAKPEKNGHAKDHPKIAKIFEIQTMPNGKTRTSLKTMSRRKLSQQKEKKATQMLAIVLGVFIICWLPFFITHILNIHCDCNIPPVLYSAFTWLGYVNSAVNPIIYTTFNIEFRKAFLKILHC

activation of signaling pathways downstream of D4 receptors (printed as D3 receptors) [1]: didn't activate | selectivity ratio (dopamine D3 receptor [2]): > 10000 | activation of signaling pathways downstream of D2 receptors (dopamine D2 receptor [3]): didn't activate | Ki (dopamine D3 receptor [4]): 7.4 nM | Ki (dopamine D2 receptor [5]; [3H]-sulpiride competition, HEK-293 cells, read-out: KiD2R): > 79600 nM | inhibition (dopamine D2 receptor [5]; […], arylpiperazine-arylurea compounds at 100 nM, [3H]-sulpiride, HEK-293 cells (Table 2), read-out: D2 Receptor Displacement (%)): 10.2 ± 6.7% | solubility ([7]; 3.3 mg/mL): > 3300 µg/mL | solubility ([7]; 5 mg/mL): < 5000 µg/mL | solubility ([7]; 10 mg/mL): < 5000 µg/mL
Structure (SMILES): O=C(NCCCCN1CCN(c2ccc(Cl)cc2)CC1)Nc1cnc2ccccc2c1 [Compound 8i, 1-(4-(4-(4-chlorophenyl)piperazin-1-yl)butyl)-3-(quinolin-3-yl)urea]
Solubility in water ([6]; 1 mg/mL): + (+ indicates that the compound was completely dissolved) | Solubility in water ([6]; 3 mg/mL): − (− indicates that the compound was un-dissolved or not completely dissolved) | Solubility in water ([6]; 6 mg/mL): − (− indicates that the compound was un-dissolved or not completely dissolved) | Solubility in water ([6]; 12 mg/mL): − (− indicates that the compound was un-dissolved or not completely dissolved) | activation of signaling pathways downstream of D3 receptors (dopamine D3 receptor [8]): activated signaling pathways downstream of D3 receptors | frequency of falling [9]: reduced the frequency of falling | latency to fall [9]: increased the latency to fall
